This is an account of results in patent publication US20240300914A1, “KC2-Type Lipids” (NanoVation Therapeutics Inc., priority 2021, published 2024).

The subject of test [1] is FVII. The note with it: mice, siRNA formulations; Jayaraman et al. 2012; cited from earlier work.
Test [2] deals with 22Rv1 cells modified to stably express luciferase. Briefly: Luciferase knockdown by siRNA-LNPs in 22Rv1 cells. Particulars: Homo sapiens; siRNA-LNP 50/10/38.5/1.5, N/P 3; 22Rv1 luciferase cells; read-out: half maximal effective siRNA concentration (EC50). The test is classed as cell-based. Here is the method:
The LNPs contain 50/10/38.5/1.5 mol % of ionizable lipid/DSPC/chol/PEG-DMG (N/P=3) and the siRNA encodes luciferase.
An siRNA targeted against firefly luciferase purchased from Integrated DNA Technologies (IDT, Coralville, IA) was used to assess ability of LNP to knockdown firefly luciferase in a cell line.
LNP formulations containing the ionizable lipids, nor-KC2 or MC3, DSPC, cholesterol, and PEG-DMG were prepared containing siRNA encoding luciferase. The lipid nanoparticles comprise 50/10/38.5/1.5 mol % of ionizable lipid/DSPC/chol/PEG-DMG and the nitrogen-to-phosphorus ratio (N/P) was 3.

SMILES strings stand for the structures. In brackets after ≈: the same amount, converted by molar mass.

For the molecule `CCCCC/C=C\C/C=C\CCCCCCCCC1(CCCCCCCC/C=C\C/C=C\CCCCC)OCC(CCN(C)C)O1` (stereo not drawn) [KC2], the ED50 for FVII gene silencing in test [1] is 0.1 mg/kg.

Consider `CCCCC/C=C\C/C=C\CCCCCCCCC(CCCCCCCC/C=C\C/C=C\CCCCC)OC(=O)CCCN(C)C` [MC3, dilinoleyl-methyl-4-dimethylaminobutyrate], for which the EC50 in test [2] worked out at 0.131 mg/L (≈ 0.204 µM). Still for that read-out and setting: as for `CCCCC/C=C\C/C=C\CCCCCCCC1(CCCCCCC/C=C\C/C=C\CCCCC)OCC(CCN(C)C)O1` (stereo not drawn) [nor-KC2, 2-(2,2-Di((8Z,11Z)-heptadeca-8,11-dien-1-yl)-1,3-dioxolan-4-yl)-N,N-dimethylethan-1-amine], the figure is 0.137 mg/L (≈ 0.224 µM).
